Measurements taken from patent US20260007613A1, “LONG-ACTING LOW-TOXICITY NOVEL CATIONIC LIPID COMPOUNDS AND COMPOSITION THEREOF” (BEIJING YOUCAREKECHUANG PHARMACEUTICAL TECHNOLOGY CO., LTD., priority 2023, published 2026).
Several values for one entry are separate records, joined by “and”; a condition that tells them apart may be missing. Equal values may be shown once.

How the values were obtained:
[1] = Particle size and polydispersity index (PDI) of lipid nanoparticles by dynamic light scattering; assay type: physicochemical; conditions: LNP formulation prepared from the cationic lipid, 25° C.
Method: The particle size and polydispersity index (PDI) were determined by dynamic light scattering using Malvern laser particle size analyzer.
10 μL of the liposome solution was weighed, diluted to 1 mL with RNase-free deionized water, and added to the sample pool. Each sample was measured in triplicate. The measurement conditions were: […] scattering angle, and 25° C.

[2] = tested on: 293T cells; experiment: Fluorescent detection of Fluc-mRNA (cell transfection efficiency of LNP formulations); assay type: cell-based
How it was run: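 Transfection read-out: IVIS imaging after […], 24 h after adding LNPs (lipid molar ratio 49:10:39.5:1.5 cationic/neutral/structured/polymer-lipid; […] Fluc-mRNA). Adherent 293T cells were seeded overnight at 10,000 per well beforehand.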

[3] = tested on: 293T cells; experiment: Cell survival rate determination (CCK-8); assay type: cell-based
How it was run: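 Readout was CCK-8 absorbance (450 nm, 1 h) taken after a 24 h exposure of overnight-adhered 293T cells (10,000 per well, 96-well) to Lipofectamine 3000 or to LNPs carrying Fluc-mRNA, lipid molar ratio 49:10:39.5:1.5 cationic/neutral/structured/polymer-conjugated.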

[4] = tested on: female BALB/C mice; experiment: Live imaging in mice: protein expression of Fluc-mRNA delivered by LNP formulations; assay type: in vivo; conditions: for average radiation intensity, times that of ALC-0315: comparator ALC-0315; for average radiation intensity, times that of HHMA: comparator HHMA; for average radiation intensity, times that of SM-102: comparator SM-102; for expression of mRNA in mice, times that of YK-302: comparator YK-302; for expression amount, times that of YK-309: comparator YK-309; for expression amount, times that of YK-313: comparator YK-313; for expression amount, times that of YK-321: comparator YK-321; for average radiation intensity, times that of compound 21: comparator compound 21; for average radiation intensity, times that of compound 23: comparator compound 23
How it was run: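 Female BALB/C mice (4-6 weeks, 17-19 g) received LNP-formulated Fluc-mRNA […] intramuscularly. At 6 h, 24 h, 48 h and 7 d, luciferase substrate given intraperitoneally, and after 5 min average radiance measured by IVIS whole-body imaging.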

[5] = tested on: liver; experiment: Distribution of liposomes in mice: protein expression in the liver (live imaging); assay type: in vivo; conditions: at 6 h, intramuscular injection
Method: The LNP formulation containing […] Fluc-mRNA was injected intramuscularly into female BALB/C mice aged 4 to 6 weeks old and weighed 17 to 19 g, and the mice were intraperitoneally injected with fluorescent imaging substrate at specific time points after administration (6 h, 24 h, 48 h and 7 d), where the mice were free to move for 5 minutes, and then the average radiation intensity (corresponding to fluorescence expression intensity) of the protein expression of the mRNA carried by the LNP in the mice was detected by the IVIS Spectrum small animal live imaging device.
At 24 h, the LNP formulations prepared from all compounds had been metabolized in the liver and had no protein expression.

CCCCCCCCCCCOC(=O)CCCCCN(CCCC(=O)OCCCC(CCCCCCCCCC)CCCCCCCCCC)C[C@H](O)CN(CC)CCO [YK-310]
PDI (%) [1]: 12.4%
Particle size (nm) [1]: 192 nm
Relative light unit (RLU) ([2]; LNP formulation of Fluc-mRNA, 96-well plate, 24 hours): 25797040 RLU
Multiples (YK-305) ([2]; RLU of YK-305 / RLU of the lipid of the line): 1.06
Multiples (YK-310) ([2]; RLU of YK-310 / RLU of the lipid of the line): 1.00
Multiples (YK-312) ([2]; RLU of YK-312 / RLU of the lipid of the line): 0.78
Multiples (YK-318) ([2]; RLU of YK-318 / RLU of the lipid of the line, Tables 5, 7, 11): 0.43
Multiples (YK-319) ([2]; RLU of YK-319 / RLU of the lipid of the line, Tables 5, 7, 11): 0.95
Ratio relative to SM-102 ([2]; RLU of the lipid / RLU of SM-102, times that of SM-102): 16.08
cell transfection efficiency, times that of ALC-0315 ([2]; comparator ALC-0315): 12.69 times
cell transfection efficiency, times that of HHMA ([2]; comparator HHMA): 12.86 times
cell transfection efficiency, times that of Lipofectamine 3000 ([2]; comparator Lipofectamine 3000): 21.76 times
cell transfection efficiency, times that of YK-009 ([2]; comparator YK-009): 5.04 times
cell transfection efficiency, times that of YK-301 ([2]; comparator YK-301): 30.62 times
cell transfection efficiency, times that of YK-302 ([2]; comparator YK-302): 928.69 times
cell transfection efficiency, times that of YK-303 ([2]; comparator YK-303): 41.19 times
cell transfection efficiency, times that of YK-304 ([2]; comparator YK-304): ~1200 times and 1247.08 times
cell transfection efficiency, times that of YK-306 ([2]; comparator YK-306): 11.74 times
cell transfection efficiency, times that of YK-307 ([2]; comparator YK-307): 5.66 times
cell transfection efficiency, times that of YK-308 ([2]; comparator YK-308): 5.12 times
cell transfection efficiency, times that of YK-309 ([2]; comparator YK-309): ~200 times and 205.77 times
cell transfection efficiency, times that of YK-311 ([2]; comparator YK-311): 13.14 times
cell transfection efficiency, times that of YK-313 ([2]; comparator YK-313): 29.77 times
cell transfection efficiency, times that of YK-314 ([2]; comparator YK-314): 47.12 times
cell transfection efficiency, times that of YK-315 ([2]; comparator YK-315): 16.25 times
cell transfection efficiency, times that of YK-316 ([2]; comparator YK-316): 5.36 times
cell transfection efficiency, times that of YK-317 ([2]; comparator YK-317): 7.16 times
cell transfection efficiency, times that of YK-320 ([2]; comparator YK-320): 9.54 times
cell transfection efficiency, times that of YK-321 ([2]; comparator YK-321): 18.38 times
cell transfection efficiency, times that of compound 21 ([2]; comparator compound 21): 18.01 times
cell transfection efficiency, times that of compound 23 ([2]; comparator compound 23): 19.02 times
Cell survival rate (%) ([3]; LNP formulation of Fluc-mRNA, 24 hours, CCK-8): 82.10%
cell survival rate higher than ALC-0315 ([3]; difference of survival rates, comparator ALC-0315): 31.07% and ~30%
cell survival rate higher than HHMA ([3]; difference of survival rates, comparator HHMA): 15.63% and ~15%
cell survival rate higher than Lipofectamine 3000 ([3]; difference of survival rates, comparator Lipofectamine 3000): 57.09%
cell survival rate higher than SM-102 ([3]; difference of survival rates, comparator SM-102): 12.65% and ~12%
cell survival rate higher than YK-301 ([3]; difference of survival rates, comparator YK-301): 29.14%
cell survival rate higher than YK-302 ([3]; difference of survival rates, comparator YK-302): 65.67% and ~65% and ~50%
cell survival rate higher than YK-303 ([3]; difference of survival rates, comparator YK-303): 18.78%
cell survival rate higher than YK-304 ([3]; difference of survival rates, comparator YK-304): 47.94%
cell survival rate higher than YK-306 ([3]; difference of survival rates, comparator YK-306): 39.91%
cell survival rate higher than YK-307 ([3]; difference of survival rates, comparator YK-307): 20.96%
cell survival rate higher than YK-308 ([3]; difference of survival rates, comparator YK-308): 11.11%
cell survival rate higher than YK-309 ([3]; difference of survival rates, comparator YK-309): 50.49%
cell survival rate higher than YK-311 ([3]; difference of survival rates, comparator YK-311): 12.04%
cell survival rate higher than YK-313 ([3]; difference of survival rates, comparator YK-313): 13.17%
cell survival rate higher than YK-314 ([3]; difference of survival rates, comparator YK-314): 14.22%
cell survival rate higher than YK-315 ([3]; difference of survival rates, comparator YK-315): 10.82%
cell survival rate higher than YK-316 ([3]; difference of survival rates, comparator YK-316): 11.57%
cell survival rate higher than YK-317 ([3]; difference of survival rates, comparator YK-317): 22.92% and ~20%
cell survival rate higher than YK-320 ([3]; difference of survival rates, comparator YK-320): 11.03%
cell survival rate higher than YK-321 ([3]; difference of survival rates, comparator YK-321): 9.76%
cell survival rate higher than compound 21 ([3]; difference of survival rates, comparator compound 21): 11.89%
cell survival rate higher than compound 23 ([3]; difference of survival rates, comparator compound 23): 10.60%
average radiation intensity, times that of ALC-0315 ([4]; 6 h): 10.56 times
average radiation intensity, times that of HHMA ([4]; 6 h): 14.02 times
average radiation intensity, times that of SM-102 ([4]; 6 h): 13.01 times
expression of mRNA in mice, times that of YK-302 ([4]; 6 h): 625.87 times
expression amount, times that of YK-309 ([4]; 6 h): 138.93 times
expression amount, times that of YK-313 ([4]; 6 h): 20.64 times
expression amount, times that of YK-321 ([4]; 6 h): 17.70 times
average radiation intensity, times that of compound 21 ([4]; 6 h): 14.95 times
average radiation intensity, times that of compound 23 ([4]; 6 h): 15.48 times
average radiation intensity ([4]; 6 h after intramuscular injection): 9125240
average radiation intensity, times that of ALC-0315 ([4]; 24 h): 15.50 times
average radiation intensity, times that of HHMA ([4]; 24 h): 24.61 times
average radiation intensity, times that of SM-102 ([4]; 24 h): 24.51 times
expression of mRNA in mice, times that of YK-302 ([4]; 24 h): 746.29 times
expression amount, times that of YK-309 ([4]; 24 h): 175.52 times
expression amount, times that of YK-313 ([4]; 24 h): 28.27 times
expression amount, times that of YK-321 ([4]; 24 h): 29.16 times and ~29 times
average radiation intensity, times that of compound 21 ([4]; 24 h): 26.88 times
average radiation intensity, times that of compound 23 ([4]; 24 h): 28.24 times
average radiation intensity ([4]; 24 h after intramuscular injection): 2952310
average radiation intensity, times that of ALC-0315 ([4]; 48 h): 24.64 times
average radiation intensity, times that of HHMA ([4]; 48 h): 30.13 times
average radiation intensity, times that of SM-102 ([4]; 48 h): 30.14 times
expression of mRNA in mice, times that of YK-302 ([4]; 48 h): 957.07 times
expression amount, times that of YK-309 ([4]; 48 h): 149.75 times
expression amount, times that of YK-313 ([4]; 48 h): 38.38 times
expression amount, times that of YK-321 ([4]; 48 h): 26.83 times
average radiation intensity, times that of compound 21 ([4]; 48 h): 31.67 times
average radiation intensity, times that of compound 23 ([4]; 48 h): 29.62 times
average radiation intensity ([4]; 48 h after intramuscular injection): 981000
average radiation intensity, times that of ALC-0315 ([4]; 7 d): 16.67 times
average radiation intensity, times that of HHMA ([4]; 7 d): 20.01 times
average radiation intensity, times that of SM-102 ([4]; 7 d): 17.74 times
expression of mRNA in mice, times that of YK-302 ([4]; 7 d): 305.89 times
expression amount, times that of YK-309 ([4]; 7 d): 93.52 times
expression amount, times that of YK-313 ([4]; 7 d): 36.31 times
expression amount, times that of YK-321 ([4]; 7 d): 17.84 times and ~17 times
average radiation intensity, times that of compound 21 ([4]; 7 d): 18.23 times
average radiation intensity, times that of compound 23 ([4]; 7 d): 18.82 times
average radiation intensity ([4]; 7 d after intramuscular injection): 117462
protein expression in the liver [5]: no protein expression in the liver
